Laboratory results from US8580832B2, “Substituted phenoxy aminothiazolones as estrogen related receptor-α modulators” (Janssen Pharmaceutica N.V., priority 2007, dated 2013).

Target: T1, ERR1 (also known as ERR-α or ERR-1) (Homo sapiens, UniProt P11474)
T1 construct: the ^6His-tagged-ERR1 LBD
T1 sequence (P11474 193-421 limits assumed): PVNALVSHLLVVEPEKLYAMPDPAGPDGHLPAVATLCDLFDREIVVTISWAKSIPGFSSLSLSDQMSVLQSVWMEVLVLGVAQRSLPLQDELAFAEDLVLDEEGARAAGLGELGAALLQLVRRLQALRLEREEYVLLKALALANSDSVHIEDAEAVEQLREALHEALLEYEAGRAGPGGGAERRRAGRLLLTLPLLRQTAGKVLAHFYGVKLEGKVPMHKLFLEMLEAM
Assay: TR-FRET assay: disruption of co-activator peptide binding to ERR1 LBD
Assay type: biochemical
Details: 6His-tagged ERR1 LBD 6 nM, GST-SRC-2 peptide 6 nM, 25° C., 4-18 hours; average of 3 independent experiments
Description: Time-Resolved Fluorescence Resonance Energy Transfer (TR-FRET) experiments were performed to examine the functional response of ERR1 (also known as ERR-α or ERR-1) ligands. The TR-FRET assay described herein relied on the conformation of ERR1 for binding to a co-activator peptide: when a test compound binds to ERR1 and alters its conformation, it can disrupt the binding of the co-activator peptide. The components of this homogeneous secondary assay included: the ^6His-tagged-ERR1 LBD, a GST-labeled-hSRC2 co-activator polypeptide and a fluorescent donor/acceptor pair from CIS bio international htrf/bioassays (Bedford, Mass.) using both an α-GST Europium Cryptate (Eu) label and an α^6His-XL665 (allophycocyanin) fluorophore.
For TR-FRET measurements, the reaction was buffered in 25 mM Tris pH 8, 2.5 mM Hepes, 20 mM KCl, 1 mM DTT, and 0.05 mg/mL BSA (-lipids). […] Reactions were allowed to reach equilibrium at 25° C. for 4-18 hours before collecting data on the Analyst from LJL Biosystems (Molecular Devices Sunnyvale, Calif.). […] Dose response curves were fitted using a hyperbolic equation and the data reported is the average of 3 independent experiments.

Compound | EC50 [nM]
CN1CCN(CCNC2=NC(=O)/C(=C/c3ccc(Oc4ccc(C#N)cc4C(F)(F)F)c(F)c3)S2)CC1 [Example 104, 4-(2-Fluoro-4-{2-[2-(4-methyl-piperazin-1-yl)-ethylamino]-4-oxo-4H-thiazol-5-ylidenemethyl}-phenoxy)-3-trifluoromethyl-benzonitrile] | 22
CNC1=NC(=O)/C(=C/c2ccc(Oc3ccc(C#N)cc3C(F)(F)F)c(OC)c2)S1 [Example 77, 4-[2-Methoxy-4-(2-methylamino-4-oxo-4H-thiazol-5-ylidenemethyl)-phenoxy]-3-trifluoromethyl-benzonitrile] | 16
N#Cc1ccc(Oc2ccc(/C=C3\SC(NCCCN4CCNC(=O)C4)=NC3=O)cc2F)c(C(F)(F)F)c1 [Example 100, 4-(2-Fluoro-4-{4-oxo-2-[3-(3-oxo-piperazin-1-yl)-propylamino]-4H-thiazol-5-ylidenemethyl}-phenoxy)-3-trifluoromethyl-benzonitrile] | 31
N#Cc1ccc(Oc2ccc(/C=C3\SC(NC4CCN(CCO)CC4)=NC3=O)cc2F)c(C(F)(F)F)c1 [Example 112, 4-(2-Fluoro-4-{2-[1-(2-hydroxy-ethyl)-piperidin-4-ylamino]-4-oxo-4H-thiazol-5-ylidenemethyl}-phenoxy)-3-trifluoromethyl-benzonitrile] | 26
N#Cc1ccc(Oc2ccc(/C=C3\SC(NCCCN4CCCC4=O)=NC3=O)cc2F)c(C(F)(F)F)c1 [Example 51, 4-(2-Fluoro-4-{4-oxo-2-[3-(2-oxo-pyrrolidin-1-yl)-propylamino]-4H-thiazol-5-ylidenemethyl}-phenoxy)-3-trifluoromethyl-benzonitrile] | 29
N#Cc1ccc(Oc2ccc(/C=C3\SC(N)=NC3=O)cc2F)c2ccccc12 [Compound 4, 4-[2-Fluoro-4-(2-imino-4-oxo-thiazolidin-5-ylidenemethyl)-phenoxy]-naphthalene-1-carbonitrile] | 18
COc1cc(/C=C2\SC(NC3CCOCC3)=NC2=O)ccc1Oc1ccc(C#N)cc1C(F)(F)F [Compound 15, 4-{2-Methoxy-4-[4-oxo-2-(tetrahydro-pyran-4-ylamino)-4H-thiazol-5-ylidenemethyl]-phenoxy}-3-trifluoromethyl-benzonitrile] | 18
CCOc1cc(/C=C2\SC(N(CCO)CCO)=NC2=O)ccc1Oc1ccc(C#N)cc1C(F)(F)F [Example 56, 4-(4-{2-[Bis-(2-hydroxy-ethyl)-amino]-4-oxo-4H-thiazol-5-ylidenemethyl}-2-ethoxy-phenoxy)-3-trifluoromethyl-benzonitrile] | 150
N#Cc1ccc(Oc2ccc(/C=C3\SC(N4CCC(O)C4)=NC3=O)cc2F)c(C(F)(F)F)c1 (centres unmarked) [Example 45, 4-{2-Fluoro-4-[2-(3-hydroxy-pyrrolidin-1-yl)-4-oxo-4H-thiazol-5-ylidenemethyl]-phenoxy}-3-trifluoromethyl-benzonitrile] | 39
N#Cc1ccc(Oc2ccc(/C=C3\SC(NCCCN4CCOCC4)=NC3=O)cc2F)c(C(F)(F)F)c1 [Example 49, 4-{2-Fluoro-4-[2-(3-morpholin-4-yl-propylamino)-4-oxo-4H-thiazol-5-ylidenemethyl]-phenoxy}-3-trifluoromethyl-benzonitrile] | 10
COc1cc(/C=C2\SC(N3CCC(O)C3)=NC2=O)ccc1Oc1ccc(C#N)cc1C(F)(F)F (centres unmarked) [Example 39, 4-{4-[2-(3-Hydroxy-pyrrolidin-1-yl)-4-oxo-4H-thiazol-5-ylidenemethyl]-2-methoxy-phenoxy}-3-trifluoromethyl-benzonitrile] | 9
N#Cc1ccc(Oc2ccc(/C=C3\SC(NCc4nnn[nH]4)=NC3=O)cc2F)c(C(F)(F)F)c1 [Example 108, 4-(2-Fluoro-4-{4-oxo-2-[(1H-tetrazol-5-ylmethyl)-amino]-4H-thiazol-5-ylidenemethyl}-phenoxy)-3-trifluoromethyl-benzonitrile] | 10
COc1cc(/C=C2\SC(NC3CC3)=NC2=O)ccc1Oc1ccc(C#N)cc1C(F)(F)F [Compound 9, 4-[4-(2-Cyclopropylamino-4-oxo-4H-thiazol-5-ylidenemethyl)-2-methoxy-phenoxy]-3-trifluoromethyl-benzonitrile] | 15
COc1cc(/C=C2\SC(NC3CCNC3)=NC2=O)ccc1Oc1ccc(C#N)cc1C(F)(F)F (centres unmarked) [Compound 13, 4-{2-Methoxy-4-[4-oxo-2-(pyrrolidin-3-ylamino)-4H-thiazol-5-ylidenemethyl]-phenoxy}-3-trifluoromethyl-benzonitrile] | 34
COc1cc(/C=C2\SC(N3CCN(C(C)=O)CC3)=NC2=O)ccc1Oc1ccc(C#N)cc1C(F)(F)F [Example 31, 4-{4-[2-(4-Acetyl-piperazin-1-yl)-4-oxo-4H-thiazol-5-ylidenemethyl]-2-methoxy-phenoxy}-3-trifluoromethyl-benzonitrile] | 6
N#Cc1ccc(Oc2ccc(/C=C3\SC(N4CCNC(=O)C4)=NC3=O)cc2F)c(C(F)(F)F)c1 [Example 47, 4-{2-Fluoro-4-[4-oxo-2-(3-oxo-piperazin-1-yl)-4H-thiazol-5-ylidenemethyl]-phenoxy}-3-trifluoromethyl-benzonitrile] | 19
COc1cc(/C=C2\SC(N3CCNC(=O)C3)=NC2=O)ccc1Oc1ccc(Cl)cc1C(F)(F)F [Example 61, 4-{5-[4-(4-Chloro-2-trifluoromethyl-phenoxy)-3-methoxy-benzylidene]-4-oxo-4,5-dihydro-thiazol-2-yl}-piperazin-2-one] | 1
COc1cc(/C=C2\SC(N(CCO)CCO)=NC2=O)ccc1Oc1ccc(C(F)(F)F)cc1C(F)(F)F [Example 117, 2-[Bis-(2-hydroxy-ethyl)-amino]-5-[4-(2,4-bis-trifluoromethyl-phenoxy)-3-methoxy-benzylidene]-thiazol-4-one] | 40
COc1cc(/C=C2\SC(NCc3cccnc3)=NC2=O)ccc1Oc1ccc(C#N)cc1C(F)(F)F [Compound 19, 4-(2-Methoxy-4-{4-oxo-2-[(pyridin-3-ylmethyl)-amino]-4H-thiazol-5-ylidenemethyl}-phenoxy)-3-trifluoromethyl-benzonitrile] | 18
COC(=O)CNC1=NC(=O)/C(=C/c2ccc(Oc3ccc(C#N)cc3C(F)(F)F)c(OC)c2)S1 [Example 84, {5-[4-(4-Cyano-2-trifluoromethyl-phenoxy)-3-methoxy-benzylidene]-4-oxo-4,5-dihydro-thiazol-2-ylamino}-acetic acid methyl ester] | 7
N#Cc1ccc(Oc2ccc(/C=C3\SC(NCCn4cncn4)=NC3=O)cc2F)c(C(F)(F)F)c1 [Example 98, 4-{2-Fluoro-4-[4-oxo-2-(2-[1,2,4]triazol-1-yl-ethylamino)-4H-thiazol-5-ylidenemethyl]-phenoxy}-3-trifluoromethyl-benzonitrile] | 17
COc1cc(/C=C2\SC(NCCO)=NC2=O)ccc1Oc1ccc(C#N)cc1C(F)(F)F [Example 32, 4-{4-[2-(2-Hydroxy-ethylamino)-4-oxo-4H-thiazol-5-ylidenemethyl]-2-methoxy-phenoxy}-3-trifluoromethyl-benzonitrile] | 21
CC(C)c1ccccc1Oc1ccc(/C=C2\SC(N3CC(C(=O)O)C3)=NC2=O)cc1 [Example 118, 1-{5-[4-(2-Isopropyl-phenoxy)-benzylidene]-4-oxo-4,5-dihydro-thiazol-2-yl}-azetidine-3-carboxylic acid] | 21
